Assay results taken from PMC9143817 (Molecules, 2022).
Like-named read-outs stand apart in the source and are kept apart here.

Columns and labels:
[1] = DPPH^•-scavenging activity (Blois method)
Source text: Radical-scavenging assays are often used for screening the antioxidant properties of pure or novel synthesized compounds. For this purpose, the most commonly and widely used radical scavenging method is the DPPH radical-scavenging assay.

[2] = ABTS^•+-scavenging activity
Source text: A ABTS^•+-scavenging assay measured the ability of pure compounds to decrease the color, reacting directly with the ABTS radical.

[3] = DMPD^•+-scavenging activity
Source text: In this study, DMPD radicals were generated in situ by oxidation with ferric chloride. […] (as a biologically active and bright yellow chemical produced by Curcuma longa species).

[4] = design: method as in ref 3 (usnic acid), 46 (caffeic acid), 47 (uric acid), 48 (tannic acid), 49 (caffeic acid phenethyl ester); concentration or dose not given beside the values; conditions: at similar concentrations; ref 3 (usnic acid), 46 (caffeic acid), 47 (uric acid), 48 (tannic acid), 49 (caffeic acid phenethyl ester); cited from earlier work
[5] = design: concentration or dose not given beside the values; conditions: at similar concentrations; ref 3 (usnic acid), 50 (eugenol), 51 (resveratrol), 52 (taxifolin), 53 (olivetol); cited from earlier work
[6] = biological target: T1, acetylcholinesterase (AChE) (Electrophorus electricus, UniProt O42275); conditions: literature values, cited from earlier work
T1 sequence (O42275 24-633): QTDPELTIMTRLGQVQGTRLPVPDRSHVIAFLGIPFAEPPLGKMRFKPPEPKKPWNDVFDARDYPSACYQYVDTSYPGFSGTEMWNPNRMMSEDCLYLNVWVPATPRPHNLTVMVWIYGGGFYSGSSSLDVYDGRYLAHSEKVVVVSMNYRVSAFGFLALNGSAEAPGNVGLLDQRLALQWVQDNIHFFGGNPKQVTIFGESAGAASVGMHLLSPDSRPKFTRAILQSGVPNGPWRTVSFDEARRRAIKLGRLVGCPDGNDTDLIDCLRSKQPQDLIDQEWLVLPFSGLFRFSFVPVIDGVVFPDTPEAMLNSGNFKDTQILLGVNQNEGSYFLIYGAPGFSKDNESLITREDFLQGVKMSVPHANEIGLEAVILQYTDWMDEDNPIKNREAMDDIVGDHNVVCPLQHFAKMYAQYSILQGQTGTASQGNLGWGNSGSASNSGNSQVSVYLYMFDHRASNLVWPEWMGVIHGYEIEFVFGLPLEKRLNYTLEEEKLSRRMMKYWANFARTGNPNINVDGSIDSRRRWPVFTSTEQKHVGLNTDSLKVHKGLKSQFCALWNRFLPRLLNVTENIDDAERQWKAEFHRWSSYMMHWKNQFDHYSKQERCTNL

[7] = biological target: T1, acetylcholinesterase (AChE); assay: biochemical
[8] = biological target: butyrylcholinesterase (BChE) (Equus caballus, UniProt P81908); assay: biochemical
Sequence of butyrylcholinesterase (BChE) (P81908 whole entry): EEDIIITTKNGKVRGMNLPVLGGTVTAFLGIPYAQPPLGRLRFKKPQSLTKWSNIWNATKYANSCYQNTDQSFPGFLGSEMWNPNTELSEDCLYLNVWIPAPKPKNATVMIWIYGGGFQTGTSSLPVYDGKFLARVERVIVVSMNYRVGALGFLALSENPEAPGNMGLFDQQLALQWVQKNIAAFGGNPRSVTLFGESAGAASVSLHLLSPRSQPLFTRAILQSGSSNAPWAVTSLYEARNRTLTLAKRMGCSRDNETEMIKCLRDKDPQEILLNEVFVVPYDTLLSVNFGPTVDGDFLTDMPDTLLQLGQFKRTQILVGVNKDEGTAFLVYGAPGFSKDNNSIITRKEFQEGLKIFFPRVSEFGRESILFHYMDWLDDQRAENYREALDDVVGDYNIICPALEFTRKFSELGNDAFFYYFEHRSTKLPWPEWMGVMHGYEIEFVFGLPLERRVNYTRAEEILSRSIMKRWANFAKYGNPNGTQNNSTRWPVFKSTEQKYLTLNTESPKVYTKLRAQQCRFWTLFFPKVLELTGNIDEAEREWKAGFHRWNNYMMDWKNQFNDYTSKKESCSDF

α-glycosidase = assay: α-Glycosidase inhibition (p-NPG substrate); type: biochemical; conditions: read-out: IC50 (nM) α-Gly
Experimental: The absorbances of samples were measured at 405 nm. One α-glycosidase unit was the enzyme quantity, which catalyzes […] of substrate per minute (pH 7.4).
Lineweaver–Burk graphs were used for the determination of Ki values and other inhibition parameters.

[9] = biological target: T2, carbonic anhydrase II isoenzyme (hCA II) (Homo sapiens, UniProt P00918); assay: CA II inhibition (esterase activity); type: biochemical
T2 construct: Human erythrocytes were used as the CA II isoenzyme source; from tissue; host or cells: human erythrocytes
Experimental: Human erythrocytes were used as the CA II isoenzyme source. Fresh human erythrocytes were centrifuged at 10,000× g for 30 min. Then, they were precipitated and the serum was separated and adjusted with solid Tris to pH 8.7 [99]. The CA II isoenzyme was purified using Sepharose-4B-L-Tirozyne-sulfanylamide affinity column chromatography [100]. […] During the purification and inhibition process of hCA II, esterase activity was examined.

[10] = ref 53 (olivetol), 59 (taxifolin)

Compound: Cc1cc(C(C)(C)C)c(O)c(C(C)(C)C)c1 [BHT, butylated hydroxytoluene]
- DPPH^• Scavenging IC50 [1]: 25.95 µg/mL
- ABTS^•+ Scavenging IC50 [2]: 6.99 µg/mL
- DMPD^•+ Scavenging IC50 [3]: 8.72 µg/mL

Compound: COc1ccc(O)c(C(C)(C)C)c1 [BHA, Butylated hydroxyanisole]
- DPPH^• Scavenging IC50 [1]: 10.10 µg/mL
- ABTS^•+ Scavenging IC50 [2]: 5.07 µg/mL
- DMPD^•+ Scavenging IC50 [3]: 11.99 µg/mL

Compound: CC(=O)c1c(O)c(C)c(O)c2c1OC1=CC(=O)C(C(C)=O)C(=O)C12C (stereo not drawn) [usnic acid]
- absorbance values for Fe^3+-reducing activity [4]: 0.278
- absorbance values for Cu^2+-reducing activity [5]: 0.277
- Ki ([6]; ref 3 (usnic acid), 58 (CAPE)): 3.39 nM

Compound: CCCCCc1cc(O)cc(O)c1 [olivetol]
- absorbance values for Cu^2+-reducing activity [5]: 1.314
- Ki for AChE [6, 10]: 5.13 µg/mL

Compound: tannic acid
- absorbance values for Fe^3+-reducing activity [4]: 2.428

Compound: O=c1oc2cc(O)ccc2c2oc3cc(O)ccc3c12 [Coumestrol, 3,9-dihydroxy-6-benzofuran [3,2-c] chromenone]
- DPPH^• Scavenging IC50 [1]: 25.95 µg/mL
- ABTS^•+ Scavenging IC50 [2]: 12.24 µg/mL
- DMPD^•+ Scavenging IC50 [3]: 12.81 µg/mL
- IC50 [7]: 21.1 nM
- IC50 [8]: 18.2 nM
- Ki ([8]; Lineweaver–Burk): 21.7 ± 2.23 nM
- IC50 (α-glycosidase): 27.5 nM
- IC50 [9]: 44 nM
- Ki [9]: 23.8 ± 2.17 nM

Compound: O=C(O)/C=C/c1ccc(O)c(O)c1 [caffeic acid]
- absorbance values for Fe^3+-reducing activity [4]: 2.769

Compound: Cc1c(C)c2c(c(C)c1O)CC[C@@](C)(CCC[C@H](C)CCC[C@H](C)CCCC(C)C)O2 [α-Tocopherol]
- DPPH^• Scavenging IC50 [1]: 11.31 µg/mL
- ABTS^•+ Scavenging IC50 [2]: 8.37 µg/mL
- DMPD^•+ Scavenging IC50 [3]: 7.11 µg/mL

Compound: O=c1[nH]c(=O)c2[nH]c(=O)[nH]c2[nH]1 [uric acid]
- absorbance values for Fe^3+-reducing activity [4]: 0.432

Compound: O=C1c2c(O)cc(O)cc2OC(c2ccc(O)c(O)c2)C1O (stereo not drawn) [taxifolin]
- absorbance values for Cu^2+-reducing activity [5]: 0.750
- Ki [6, 10]: 54900 nM

Compound: C=CCc1ccc(O)c(OC)c1 [eugenol]
- absorbance values for Cu^2+-reducing activity [5]: 0.762

Compound: Cc1c(C)c2c(c(C)c1O)CCC(C)(C(=O)O)O2 (stereo not drawn) [Trolox]
- DPPH^• Scavenging IC50 [1]: 7.059 µg/mL
- ABTS^•+ Scavenging IC50 [2]: 6.16 µg/mL
- DMPD^•+ Scavenging IC50 [3]: 4.33 µg/mL

Compound: O=C(/C=C/c1ccc(O)c(O)c1)OCCc1ccccc1 [CAPE, caffeic acid phenethyl ester]
- absorbance values for Fe^3+-reducing activity [4]: 2.509
